Data published in ChEMBL document CHEMBL1138532, “Global challenge of multidrug-resistant Acinetobacter baumannii” (Antimicrob Agents Chemother, 2007).
In brackets after ≈: the same amount, converted by molar mass.

Legend:
[1] = test system: Acinetobacter baumannii; assay: Antimicrobial activity against drug-resistant Acinetobacter baumannii producing PER1 beta-lactamase; format: functional
[2] = test system: Acinetobacter baumannii; assay: Antimicrobial activity against Acinetobacter baumannii isolate producing OXA-23 beta-lactamase by agar dilution method; format: functional
[3] = test system: Acinetobacter baumannii; assay: Antimicrobial activity against Acinetobacter baumannii isolate producing IMP-4 beta-lactamase by agar dilution method; format: functional
[4] = test system: Acinetobacter baumannii; assay: Antimicrobial activity against Acinetobacter baumannii isolate producing metallo beta-lactamase by agar dilution method; format: functional
[5] = test system: Acinetobacter baumannii; assay: Antimicrobial activity against carbapenem-resistant Acinetobacter baumannii expressing ISAba1; format: functional
[6] = test system: Acinetobacter baumannii; assay: Antimicrobial activity against carbapenem-resistant Acinetobacter baumannii expressing ISAba3; format: functional
[7] = organism: Homo sapiens; assay: […] in carbapenem-resistant Acinetobacter baumannii infected human assessed as incidence of acute renal failure; format: toxicity, organism-based; settings: in vivo
[8] = test system: Acinetobacter baumannii; assay: Antimicrobial activity against Acinetobacter baumannii isolates by E-test; format: functional, organism-based

CO/N=C(\C(=O)N[C@@H]1C(=O)N2C(C(=O)[O-])=C(C[N+]3(C)CCCC3)CS[C@H]12)c1csc(N)n1 [CEFEPIME]
MIC [1]: 32 µg/mL (≈ 66.6 µM)

CC(C)(O/N=C(\C(=O)N[C@@H]1C(=O)N2C(C(=O)[O-])=C(C[n+]3ccccc3)CS[C@H]12)c1csc(N)n1)C(=O)O [CEFTAZIDIME]
MIC [1]: 256 µg/mL (≈ 468 µM)

C[C@@H](O)[C@H]1C(=O)N2C(C(=O)O)=C(S[C@@H]3CN[C@H](CNS(N)(=O)=O)C3)[C@H](C)[C@H]12 [DORIPENEM]
MIC [2]: ≤ 4 µg/mL
MIC50 [2]: 0.5 µg/mL (≈ 1.19 µM)
MIC90 [2]: 16 µg/mL (≈ 38 µM)
MIC [3]: ≤ 4 µg/mL
MIC50 [3]: 0.5 µg/mL (≈ 1.19 µM)
MIC90 [3]: 16 µg/mL (≈ 38 µM)
MIC [4]: ≤ 4 µg/mL
MIC50 [4]: 0.5 µg/mL (≈ 1.19 µM)
MIC90 [4]: 16 µg/mL (≈ 38 µM)

C[C@@H](O)[C@H]1C(=O)N2C(C(=O)O)=C(SCCNC=N)C[C@H]12 [IMIPENEM ANHYDROUS]
MIC [5]: ≥ 32 µg/mL
MIC [6]: ≥ 32 µg/mL

C[C@@H](O)[C@H]1C(=O)N2C(C(=O)O)=C(S[C@@H]3CN[C@H](C(=O)N(C)C)C3)[C@H](C)[C@H]12 [MEROPENEM]
MIC [5]: ≥ 32 µg/mL
MIC [6]: ≥ 32 µg/mL

COLISTIN [listing 1 of 2 here]
Activity [7]: 14%

COLISTIN [listing 2 of 2 here]
MIC [8]: 1 µg/mL
